According to ChEMBL document CHEMBL1201862, “PubChem BioAssay data set” (2004):
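In this assay, cells in 96-well plates receive the compound at five concentrations for 48 hours. Endpoints are linearly interpolated between the surrounding concentrations. Here, GI50 denotes the concentration required for 50% inhibition of growth.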 Activity calls are given as the source filed them. Cut-off read from the data, not from the text of the source: active = GI50 up to about 1.1 µM and inactive = higher.

Experiments:
Experiment in all cases: NCI tumour cell line growth inhibition, 48 h
SN12C = system: SN12C
SK-MEL-28 = system: SK-MEL-28
KM12 = system: KM12
IGROV-1 = system: IGROV-1
Malme-3M = system: Malme-3M
MOLT-4 = system: MOLT-4
HL-60 = system: HL-60
SK-MEL-5 = system: SK-MEL-5
OVCAR-3 = system: OVCAR-3
OVCAR-8 = system: OVCAR-8
SF-295 = system: SF-295
K562 = system: K562
EKVX = system: EKVX
TK-10 = system: TK-10
SNB-19 = system: SNB-19
UACC-62 = system: UACC-62
KM-20L2 = system: KM-20L2
HCC 2998 = system: HCC 2998
A498 = system: A498
SK-OV-3 = system: SK-OV-3
NCI-H460 = system: NCI-H460
COLO 205 = system: COLO 205
SF-268 = system: SF-268
SF-539 = system: SF-539
UO-31 = system: UO-31
HOP-92 = system: HOP-92
LOX IMVI = system: LOX IMVI
786-0 = system: 786-0
RXF 631 = system: RXF 631
SW-620 = system: SW-620
OVCAR-5 = system: OVCAR-5
SNB-75 = system: SNB-75
DMS-114 = system: DMS-114
OVCAR-4 = system: OVCAR-4
A549 = system: A549
M14 = system: M14
UACC-257 = system: UACC-257
NCI-H522 = system: NCI-H522
M19-MEL = system: M19-MEL
ACHN = system: ACHN
NCI-H23 = system: NCI-H23
HOP-62 = system: HOP-62
DMS-273 = system: DMS-273
HCT-15 = system: HCT-15
RPMI-8226 = system: RPMI-8226
HT-29 = system: HT-29
CCRF-CEM = system: CCRF-CEM
DLD-1 = system: DLD-1
XF498 = system: XF498
LXFL 529 = system: LXFL 529
SK-MEL-2 = system: SK-MEL-2
SNB-78 = system: SNB-78
NCI-H226 = system: NCI-H226
RXF 393 = system: RXF 393
CAKI-1 = system: CAKI-1
HCT-116 = system: HCT-116
U-251 = system: U-251
SR = system: SR

CC(C)C1COC(c2ccc3ccccc3c2-c2c(O[Si](C)(C)C(C)(C)C)ccc3ccccc23)=N1 (stereo not given)
GI50 (SN12C): 16.6 µM (inactive)
GI50 (SK-MEL-28): 19.1 µM (inactive)
GI50 (KM12): 17.9 µM (inactive)
GI50 (IGROV-1): 20.2 µM (inactive)
GI50 (Malme-3M): 18.4 µM (inactive)
GI50 (MOLT-4): 15.6 µM (inactive)
GI50 (HL-60): 16.1 µM (inactive)
GI50 (SK-MEL-5): 16.7 µM (inactive)
GI50 (OVCAR-3): 17.3 µM (inactive)
GI50 (OVCAR-8): 18 µM (inactive)
GI50 (SF-295): 17.2 µM (inactive)
GI50 (K562): 16.6 µM (inactive)
GI50 (EKVX): 19.1 µM (inactive)
GI50 (TK-10): 17.9 µM (inactive)
GI50 (SNB-19): 14.9 µM (inactive)
GI50 (UACC-62): 15.8 µM (inactive)
GI50 (KM-20L2): 19.5 µM (inactive)
GI50 (HCC 2998): 15.1 µM (inactive)
GI50 (A498): 19.2 µM (inactive)
GI50 (SK-OV-3): 19.8 µM (inactive)
GI50 (NCI-H460): 19.6 µM (inactive)
GI50 (COLO 205): 18.4 µM (inactive)
GI50 (SF-268): 17.9 µM (inactive)
GI50 (SF-539): 16.9 µM (inactive)
GI50 (UO-31): 14.8 µM (inactive)
GI50 (HOP-92): 13.6 µM (inactive)
GI50 (LOX IMVI): 19.7 µM (inactive)
GI50 (786-0): 18.4 µM (inactive)
GI50 (RXF 631): 14.9 µM (inactive)
GI50 (SW-620): 18.5 µM (inactive)
GI50 (OVCAR-5): 18.4 µM (inactive)
GI50 (SNB-75): 17.9 µM (inactive)
GI50 (DMS-114): 15.6 µM (inactive)
GI50 (OVCAR-4): 14.6 µM (inactive)
GI50 (A549): 17.4 µM (inactive)
GI50 (M14): 15.8 µM (inactive)
GI50 (UACC-257): 18.2 µM (inactive)
GI50 (NCI-H522): 15.2 µM (inactive)
GI50 (M19-MEL): 18.8 µM (inactive)
GI50 (ACHN): 18.9 µM (inactive)
GI50 (NCI-H23): 16.3 µM (inactive)
GI50 (HOP-62): 18.8 µM (inactive)
GI50 (DMS-273): 21.4 µM (inactive)
GI50 (HCT-15): 22.3 µM
GI50 (RPMI-8226): 14.7 µM (inactive)
GI50 (HT-29): 15.5 µM (inactive)
GI50 (CCRF-CEM): 18.1 µM (inactive)
GI50 (DLD-1): 17.1 µM (inactive)
GI50 (XF498): 14.5 µM (inactive)
GI50 (LXFL 529): 15.4 µM (inactive)
GI50 (SK-MEL-2): 16.1 µM (inactive)
GI50 (SNB-78): 6.59 µM (inactive)
GI50 (NCI-H226): 11.8 µM (inactive)
GI50 (RXF 393): 18.8 µM (inactive)
GI50 (CAKI-1): 21.9 µM (inactive)

O=C(CC12C3C4C1C1C2C3C41CC(=O)NO)NO (stereo not given)
GI50 (SN12C): 41.2 µM (inactive)
GI50 (SK-MEL-28): 60.4 µM (inactive)
GI50 (HCT-116): 42.4 µM (inactive)
GI50 (KM12): 38.8 µM (inactive)
GI50 (Malme-3M): 31 µM (inactive)
GI50 (MOLT-4): 45.8 µM (inactive)
GI50 (HL-60): 36.9 µM (inactive)
GI50 (SK-MEL-5): 27.4 µM (inactive)
GI50 (OVCAR-3): 34.3 µM (inactive)
GI50 (OVCAR-8): 33.1 µM (inactive)
GI50 (SF-295): 27.1 µM (inactive)
GI50 (K562): 25.2 µM (inactive)
GI50 (EKVX): > 100 µM (inactive)
GI50 (TK-10): > 100 µM (inactive)
GI50 (SNB-19): > 100 µM (inactive)
GI50 (UACC-62): 37.6 µM (inactive)
GI50 (KM-20L2): 38.2 µM (inactive)
GI50 (HCC 2998): > 100 µM (inactive)
GI50 (A498): 28.8 µM (inactive)
GI50 (NCI-H460): 23.4 µM (inactive)
GI50 (COLO 205): 46.3 µM (inactive)
GI50 (SF-268): 50 µM (inactive)
GI50 (SF-539): 46.3 µM (inactive)
GI50 (HOP-92): 39.3 µM (inactive)
GI50 (LOX IMVI): 28.9 µM (inactive)
GI50 (786-0): 40.7 µM (inactive)
GI50 (RXF 631): 27.4 µM (inactive)
GI50 (SW-620): 38.9 µM (inactive)
GI50 (OVCAR-5): > 100 µM (inactive)
GI50 (SNB-75): 29.6 µM (inactive)
GI50 (DMS-114): 24.2 µM (inactive)
GI50 (U-251): 35.7 µM (inactive)
GI50 (A549): 37.8 µM (inactive)
GI50 (M14): 28.8 µM (inactive)
GI50 (UACC-257): 21.8 µM (inactive)
GI50 (NCI-H522): 27.7 µM (inactive)
GI50 (SR): 49.3 µM (inactive)
GI50 (ACHN): > 100 µM (inactive)
GI50 (NCI-H23): 78.2 µM (inactive)
GI50 (HOP-62): 40.8 µM (inactive)
GI50 (DMS-273): 40.6 µM (inactive)
GI50 (HCT-15): 44.2 µM
GI50 (RPMI-8226): 40.3 µM (inactive)
GI50 (HT-29): 29.4 µM (inactive)
GI50 (CCRF-CEM): 26.7 µM (inactive)
GI50 (DLD-1): 48.1 µM (inactive)
GI50 (XF498): > 100 µM (inactive)
GI50 (LXFL 529): 47.6 µM (inactive)
GI50 (SK-MEL-2): > 100 µM (inactive)
GI50 (SNB-78): 44.3 µM (inactive)
GI50 (NCI-H226): 34 µM (inactive)
GI50 (CAKI-1): 71.8 µM (inactive)

COc1cc2c(c(OC)c1OC)-c1ccc(SC)c(=O)cc1[C@@H](NC(=O)c1ccc([N+](=O)[O-])cc1)CC2
GI50 (SN12C): 0.00957 µM (active)
GI50 (SK-MEL-28): 4.45 µM (inactive)
GI50 (HCT-116): < 0.0025 µM (active)
GI50 (KM12): < 0.0025 µM (active)
GI50 (IGROV-1): 0.0126 µM (active)
GI50 (Malme-3M): < 0.0025 µM (active)
GI50 (MOLT-4): 0.00289 µM (active)
GI50 (HL-60): < 0.0025 µM (active)
GI50 (SK-MEL-5): < 0.0025 µM (active)
GI50 (OVCAR-3): < 0.0025 µM (active)
GI50 (SF-295): < 0.0025 µM (active)
GI50 (K562): < 0.0025 µM (active)
GI50 (EKVX): < 0.0025 µM (active)
GI50 (TK-10): 3.13 µM (inactive)
GI50 (UACC-62): 0.00853 µM (active)
GI50 (KM-20L2): < 0.0025 µM (active)
GI50 (HCC 2998): 0.00588 µM (active)
GI50 (A498): 0.00632 µM (active)
GI50 (SK-OV-3): < 0.0025 µM (active)
GI50 (NCI-H460): 0.00327 µM (active)
GI50 (COLO 205): < 0.0025 µM (active)
GI50 (SF-268): 0.0154 µM (active)
GI50 (SF-539): < 0.0025 µM (active)
GI50 (UO-31): 0.00579 µM (active)
GI50 (HOP-92): < 0.0025 µM (active)
GI50 (LOX IMVI): < 0.0025 µM (active)
GI50 (786-0): 0.00528 µM (active)
GI50 (RXF 631): < 0.01 µM (active)
GI50 (SW-620): < 0.0025 µM (active)
GI50 (OVCAR-5): 0.00485 µM (active)
GI50 (SNB-75): 10.7 µM (inactive)
GI50 (DMS-114): < 0.0025 µM (active)
GI50 (U-251): 0.025 µM (active)
GI50 (OVCAR-4): 0.123 µM (active)
GI50 (A549): 0.025 µM (active)
GI50 (M14): < 0.0025 µM (active)
GI50 (UACC-257): < 0.0025 µM (active)
GI50 (M19-MEL): 0.0195 µM (active)
GI50 (SR): 0.00522 µM (active)
GI50 (ACHN): 0.00555 µM (active)
GI50 (NCI-H23): < 0.01 µM (active)
GI50 (HOP-62): < 0.0025 µM (active)
GI50 (DMS-273): < 0.0025 µM (active)
GI50 (HCT-15): 0.00843 µM
GI50 (RPMI-8226): < 0.0025 µM (active)
GI50 (HT-29): 0.1 µM (active)
GI50 (CCRF-CEM): < 0.0025 µM (active)
GI50 (DLD-1): < 0.0025 µM (active)
GI50 (XF498): 0.00746 µM (active)
GI50 (SK-MEL-2): 0.0045 µM (active)
GI50 (SNB-78): < 0.0025 µM (active)
GI50 (NCI-H226): < 0.01 µM (active)
GI50 (RXF 393): < 0.0025 µM (active)
